Experimental data as given in ChEMBL document CHEMBL1201862, “PubChem BioAssay data set” (2004).
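Interpolation was linear, between the two tested concentrations surrounding the appropriate level; five concentrations were tested over 48 hours in 96-well plates. GI50 is the concentration that inhibits growth by half.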 The source made the active and inactive calls. No stated cut-off is given here; in the data, active = GI50 up to about 1.1 µM and inactive = higher.

Assays:
Experiment in all cases: growth of human tumour cells (NCI), 48 h
786-0 = system: 786-0
A498 = system: A498
A549 = system: A549
ACHN = system: ACHN
BT-549 = system: BT-549
CAKI-1 = system: CAKI-1
COLO 205 = system: COLO 205
DU-145 = system: DU-145
EKVX = system: EKVX
HCC 2998 = system: HCC 2998
HCT-116 = system: HCT-116
HCT-15 = system: HCT-15
HL-60 = system: HL-60
HOP-62 = system: HOP-62
HOP-92 = system: HOP-92
HT-29 = system: HT-29
Hs-578T = system: Hs-578T
IGROV-1 = system: IGROV-1
K562 = system: K562
KM12 = system: KM12
LOX IMVI = system: LOX IMVI
M14 = system: M14
MCF7 = system: MCF7
MDA-MB-231 = system: MDA-MB-231
MDA-MB-435 = system: MDA-MB-435
MDA-N = system: MDA-N
MOLT-4 = system: MOLT-4
Malme-3M = system: Malme-3M
NCI-H226 = system: NCI-H226
NCI-H23 = system: NCI-H23
NCI-H460 = system: NCI-H460
NCI-H522 = system: NCI-H522
NCI/ADR-RES = system: NCI/ADR-RES
OVCAR-3 = system: OVCAR-3
OVCAR-4 = system: OVCAR-4
OVCAR-5 = system: OVCAR-5
OVCAR-8 = system: OVCAR-8
PC-3 = system: PC-3
RPMI-8226 = system: RPMI-8226
RXF 393 = system: RXF 393
SF-268 = system: SF-268
SF-295 = system: SF-295
SF-539 = system: SF-539
SK-MEL-28 = system: SK-MEL-28
SK-MEL-2 = system: SK-MEL-2
SK-MEL-5 = system: SK-MEL-5
SK-OV-3 = system: SK-OV-3
SN12C = system: SN12C
SNB-19 = system: SNB-19
SNB-75 = system: SNB-75
SR = system: SR
SW-620 = system: SW-620
T47D = system: T47D
TK-10 = system: TK-10
U-251 = system: U-251
UACC-257 = system: UACC-257
UACC-62 = system: UACC-62
UO-31 = system: UO-31
CCRF-CEM = system: CCRF-CEM

O=C(O)[C@H](c1ccccc1)[C@@H](C(=O)O)c1ccccc1 was tested, and the GI50 (786-0) was > 100 µM (inactive), the GI50 (A498) was > 100 µM (inactive) and the GI50 (A549) was > 100 µM (inactive). For the same compound, the GI50 (ACHN) was > 100 µM (inactive), the GI50 (BT-549) was > 100 µM (inactive) and the GI50 (CAKI-1) was > 100 µM (inactive). For the same compound, the GI50 (COLO 205) was > 100 µM (inactive), the GI50 (DU-145) was > 100 µM (inactive) and the GI50 (EKVX) was > 100 µM (inactive). For the same compound, the GI50 (HCC 2998) was > 100 µM (inactive), the GI50 (HCT-116) was > 100 µM (inactive) and the GI50 (HCT-15) was over 100 µM. For the same compound, the GI50 (HL-60) was 0.228 µM (active), the GI50 (HOP-62) was > 100 µM (inactive) and the GI50 (HOP-92) was > 100 µM (inactive). The GI50 (HT-29) was > 100 µM (inactive), the GI50 (Hs-578T) was > 100 µM (inactive) and the GI50 (IGROV-1) was > 100 µM (inactive). The GI50 (K562) was > 100 µM (inactive), the GI50 (KM12) was > 100 µM (inactive) and the GI50 (LOX IMVI) was > 100 µM (inactive). The GI50 (M14) was > 100 µM (inactive), the GI50 (MCF7) was > 100 µM (inactive) and the GI50 (MDA-MB-231) was > 100 µM (inactive). For the same compound, the GI50 (MDA-MB-435) was > 100 µM (inactive), the GI50 (MDA-N) was > 100 µM (inactive) and the GI50 (MOLT-4) was > 100 µM (inactive). For the same compound, the GI50 (Malme-3M) was > 100 µM (inactive), the GI50 (NCI-H226) was > 100 µM (inactive) and the GI50 (NCI-H23) was > 100 µM (inactive). The GI50 (NCI-H460) was > 100 µM (inactive), the GI50 (NCI-H522) was > 100 µM (inactive) and the GI50 (NCI/ADR-RES) was > 100 µM (inactive). For the same compound, the GI50 (OVCAR-3) was > 100 µM (inactive), the GI50 (OVCAR-4) was > 100 µM (inactive) and the GI50 (OVCAR-5) was > 100 µM (inactive). The GI50 (OVCAR-8) was > 100 µM (inactive), the GI50 (PC-3) was > 100 µM (inactive) and the GI50 (RPMI-8226) was > 100 µM (inactive). For the same compound, the GI50 (RXF 393) was > 100 µM (inactive), the GI50 (SF-268) was > 100 µM (inactive) and the GI50 (SF-295) was > 100 µM (inactive). The GI50 (SF-539) was > 100 µM (inactive), the GI50 (SK-MEL-28) was > 100 µM (inactive) and the GI50 (SK-MEL-2) was > 100 µM (inactive). For the same compound, the GI50 (SK-MEL-5) was > 100 µM (inactive), the GI50 (SK-OV-3) was > 100 µM (inactive) and the GI50 (SN12C) was > 100 µM (inactive). For the same compound, the GI50 (SNB-19) was > 100 µM (inactive), the GI50 (SNB-75) was > 100 µM (inactive) and the GI50 (SR) was > 100 µM (inactive). The GI50 (SW-620) was > 100 µM (inactive), the GI50 (T47D) was > 100 µM (inactive) and the GI50 (TK-10) was > 100 µM (inactive). For the same compound, the GI50 (U-251) was > 100 µM (inactive), the GI50 (UACC-257) was > 100 µM (inactive) and the GI50 (UACC-62) was > 100 µM (inactive). The GI50 (UO-31) was > 100 µM (inactive).

O=c1cc(/C=C/c2ccc(O)c(O)c2)oc(/C=C/c2ccc(O)c(O)c2)c1 was tested, and the GI50 (786-0) was 5.75 µM (inactive), the GI50 (A498) was 3.84 µM (inactive) and the GI50 (A549) was 13.4 µM (inactive). The GI50 (ACHN) was 4.84 µM (inactive), the GI50 (BT-549) was 4.8 µM (inactive) and the GI50 (CAKI-1) was 3.37 µM (inactive). For the same compound, the GI50 (CCRF-CEM) was 1.24 µM (inactive), the GI50 (COLO 205) was 8.2 µM (inactive) and the GI50 (DU-145) was 4.55 µM (inactive). For the same compound, the GI50 (EKVX) was 6.53 µM (inactive), the GI50 (HCC 2998) was 2.49 µM (inactive) and the GI50 (HCT-116) was 4.53 µM (inactive). For the same compound, the GI50 (HCT-15) was 5.68 µM, the GI50 (HOP-62) was 7.53 µM (inactive) and the GI50 (HOP-92) was 2.48 µM (inactive). The GI50 (HT-29) was 7.91 µM (inactive), the GI50 (Hs-578T) was 4.09 µM (inactive) and the GI50 (IGROV-1) was 4.17 µM (inactive). For the same compound, the GI50 (K562) was 2.11 µM (inactive), the GI50 (KM12) was 4.37 µM (inactive) and the GI50 (LOX IMVI) was 3.61 µM (inactive). For the same compound, the GI50 (M14) was 4.52 µM (inactive), the GI50 (MCF7) was 3.29 µM (inactive) and the GI50 (MDA-MB-231) was 4.44 µM (inactive). The GI50 (MDA-MB-435) was 1.43 µM (inactive), the GI50 (MDA-N) was 2.24 µM (inactive) and the GI50 (MOLT-4) was 1.83 µM (inactive). For the same compound, the GI50 (Malme-3M) was 5.06 µM (inactive), the GI50 (NCI-H226) was 5.16 µM (inactive) and the GI50 (NCI-H23) was 4.57 µM (inactive). For the same compound, the GI50 (NCI-H460) was 5.02 µM (inactive), the GI50 (NCI-H522) was 1.24 µM (inactive) and the GI50 (NCI/ADR-RES) was 26.1 µM (inactive). For the same compound, the GI50 (OVCAR-3) was 3.19 µM (inactive), the GI50 (OVCAR-4) was 3.78 µM (inactive) and the GI50 (OVCAR-5) was 17.2 µM (inactive). For the same compound, the GI50 (OVCAR-8) was 4.4 µM (inactive), the GI50 (PC-3) was 5.73 µM (inactive) and the GI50 (RPMI-8226) was 6.58 µM (inactive). The GI50 (RXF 393) was 2.72 µM (inactive), the GI50 (SF-268) was 2.17 µM (inactive) and the GI50 (SF-295) was 9.06 µM (inactive). For the same compound, the GI50 (SF-539) was 2.75 µM (inactive), the GI50 (SK-MEL-28) was 11.9 µM (inactive) and the GI50 (SK-MEL-2) was 2.65 µM (inactive). For the same compound, the GI50 (SK-MEL-5) was 3.19 µM (inactive), the GI50 (SK-OV-3) was 9.02 µM (inactive) and the GI50 (SN12C) was 4.29 µM (inactive). The GI50 (SNB-19) was 3.82 µM (inactive), the GI50 (SNB-75) was 4.41 µM (inactive) and the GI50 (SR) was 1.07 µM (active). For the same compound, the GI50 (SW-620) was 4.83 µM (inactive), the GI50 (T47D) was 1.98 µM (inactive) and the GI50 (TK-10) was 7.33 µM (inactive). For the same compound, the GI50 (U-251) was 2.74 µM (inactive), the GI50 (UACC-257) was 5.31 µM (inactive) and the GI50 (UACC-62) was 2.37 µM (inactive). For the same compound, the GI50 (UO-31) was 4.66 µM (inactive).
